Results published in ChEMBL document CHEMBL1140962, “An efficient tool for identifying inhibitors based on 3D-QSAR and docking using feature-shape pharmacophore of biologically active conformation--a case study with CDK2/cyclinA” (Eur J Med Chem, 2008).

Molecular target: Cyclin-dependent kinase 2 (Homo sapiens, UniProt P24941)
Assay: Inhibition of CDK2/Cyclin A

IC50 (read-out: IC50) [nM]	IC50 (read-out: pIC50 (converted)) [nM]	Structure (SMILES)
> 10000		O=C(Nc1cc(-c2ccccc2)[nH]n1)c1ccc(Br)cc1
> 10000		CCCC(=O)Nc1cc(C)[nH]n1
10000		O=C(Nc1cc(C2CCCCC2)[nH]n1)c1ccc(Br)cc1
4	4	O=C(Cc1ccc(-c2ccccc2)c(F)c1)Nc1cc(C2CC2)n[nH]1
9	8.99	Cc1cc(CC(=O)Nc2cc(C3CC3)[nH]n2)ccc1-c1ccccc1

Further lines, the compound ahead of its results:

Structure (SMILES)	IC50 (read-out: IC50) [nM]	IC50 (read-out: pIC50 (converted)) [nM]
O=C(Nc1cc(C2CC2)[nH]n1)c1ccccc1Cl	10000	
COc1ccccc1C(=O)Nc1cc(C2CC2)[nH]n1	> 10000	
CC(C)(C)c1cc(NC(=O)c2ccc(Br)cc2)n[nH]1	> 10000	
O=C(Nc1cc(C2CC2)[nH]n1)c1c(Cl)cccc1Cl	> 10000	
CO[C@@H](C(=O)Nc1cc(C2CC2)n[nH]1)c1ccccc1	> 10000	
O=C(Nc1cc(Cc2ccccc2)[nH]n1)c1ccc(Br)cc1	> 10000	
O=C(Cc1ccc(Cc2cccs2)cc1)Nc1cc(C2CC2)n[nH]1	3	3
